Data reported in article PMC7397142, “Discovery of Novel Tankyrase Inhibitors through Molecular Docking-Based Virtual Screening and Molecular Dynamics Simulation Studies” (Molecules, 2020).
Like-named read-outs stand apart in the source and are kept apart here.

Columns and labels:
[1] = molecular target: T1, tankyrase 2 (TNKS2) (Homo sapiens, UniProt Q9H2K2); assay: immunochemical dot-blot assay of PAR accumulation, […] NAD+; 4PL fit gave […]; type: biochemical
T1 construct: catalytic fragment (human, recombinant, residues 849–1166)
T1 sequence (Q9H2K2 849-1166): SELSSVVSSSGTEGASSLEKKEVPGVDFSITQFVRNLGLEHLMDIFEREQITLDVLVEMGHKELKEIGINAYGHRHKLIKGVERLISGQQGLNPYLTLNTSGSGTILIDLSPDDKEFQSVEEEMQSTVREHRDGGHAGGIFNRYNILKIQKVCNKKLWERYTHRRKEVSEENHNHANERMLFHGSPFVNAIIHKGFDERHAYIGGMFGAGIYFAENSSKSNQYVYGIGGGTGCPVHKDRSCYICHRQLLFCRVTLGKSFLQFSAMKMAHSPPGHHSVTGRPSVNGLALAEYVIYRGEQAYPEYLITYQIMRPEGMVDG

[2] = molecular target: T1, tankyrase 2 (TNKS2); assay: as above; type: biochemical; remark: listed apart in the source

For `COc1ccc2oc(=O)c(-c3ccc(OCC(=O)NCc4cccnc4)cc3)cc2c1` [A3], the IC50 [1] was < 10 µM.

`O=C(NCCNC(=O)c1cnccn1)c1ccc(-c2cc3ccccc3oc2=O)cc1` [A1] was tested, and the IC50 [2] was < 0.01 µM.
